Data published in US20150018305A1, “SIRTUIN INDUCER, TISSUE REPAIRING AGENT, HEPATOCYTE GROWTH FACTOR INDUCER, TISSUE HOMEOSTASIS MAINTENANCE AGENT, AND TLR4 AGONIST, HAVING HYALURONIC ACID FRAGMENT AS ACTIVE INGREDIENT” (HYALURONAN RESEARCH INSTITUTE, INC., priority 2012, published 2015).

Test system: rat bone marrow mesenchymal stem cells
Experiment: Hydrogen peroxide induced aging of rat bone marrow mesenchymal stem cells, PI dead cell count (Test Example 21)
Format: cell-based
Conditions: 2 hours
Method: It was investigated whether the process, in which rat bone marrow mesenchymal stem cells experienced cellular aging (increased cell death) when treated with hydrogen peroxide, is affected by treatment with the hyaluronic acid fragment. Specifically, the following test was performed.
Using a DMEM culture medium (made by Wako Pure Chemical Industries, Ltd.), rat bone marrow mesenchymal stem cells were cultured by usual methods at 37° C. under 5% CO2. Hydrogen peroxide was added to the culture medium to a final concentration of 1 μM to bring about stimulation for a 15-minute period, and the culture broth was then transferred to DMEM culture medium containing no added hyaluronic acid fragments; to DMEM culture medium containing hyaluronic acid fragment (L3mer) added to a final concentration of 100 ng/ml; or to DMEM culture medium containing the hyaluronic acid fragment (L3mer) plus TLR4/MD2 added to a final concentration of 10 μg/ml, and cultured for 2 hours.
After 2 hours had passed, PI ([…]), which emits red fluorescence upon uptake into dead cells, was added to the culture medium to a final concentration of 5 μg/ml, and after incubation for 15 minutes, the condition of appearance of dead cells was examined with a fluorescence microscope.

CC(=O)NC1C(O[C@@H]2OC(C(=O)O)[C@@H](O)C(O)C2O)[C@H](O)C(CO)O[C@H]1O[C@@H]1C(C(=O)O)O[C@@H](OCCCN=[N+]=[N-])C(O)C1O (some centres unmarked) [L3mer]
suppression of cell death with TLR4/MD2 added (100 ng/ml plus TLR4/MD2 10 μg/ml): inhibited by addition of TLR4/MD2
hydrogen peroxide-induced cellular aging (increased cell death, dead cells per unit visual field) (hydrogen peroxide 1 μM, 100 ng/ml, PI staining): suppressed
